Experimental data: paper PMC7746546, “The JAK1 Selective Inhibitor ABT 317 Blocks Signaling Through Interferon-γ and Common γ Chain Cytokine Receptors to Reverse Autoimmune Diabetes in NOD Mice” (Frontiers in Immunology, 2020)

Experiments:
[1] = test system: IFN-γ mediated MHC class I upregulation on β cells; parameters: method as in PMID 28292965; conditions: cited from earlier work
[2] = test system: autoimmune insulitis in NOD mice; parameters: method as in PMID 28292965; conditions: cited from earlier work
[3] = parameters: method as in PMID 29481660; conditions: participants with diabetic kidney disease, phase 2 trial; cited from earlier work
[4] = cited from earlier work
[5] = test system: IL-21 signaling in T cells; test: IL-21-induced pSTAT3 in spleen T cells in vitro (flow cytometry); format: cell-based, mouse; conditions: 0.05, 0.2, 1 and 2 µM, CD8+ and CD4+ T cells, Fig S2K-L
Method: […] […] For use in vivo, 3 mg/kg or 10 mg/kg of drug was delivered twice daily by oral gavage in the vehicle 0.5% hydroxypropyl methylcellulose in sterile H2O. The JAK1/JAK2 inhibitor baricitinib was purchased from SelleckChem and used at a concentration of 3 mg/kg in vivo made up in a vehicle of 0.5% methyl cellulose.
Single-cell suspensions from the spleens were prepared by mechanical tissue disruption through a 70 μm cell strainer followed by red cell lysis. Cells were resuspended in FACS buffer (0.5% FCS in PBS) and filtered through a nylon mesh.
Whole islets were treated with vehicle or ABT 317 for 1 h before culture with 10 ng/ml IFN-γ for 72 h, and analysis by flow cytometry. Splenocytes and whole blood were stimulated with 100 U/ml IL-2, 50 ng/ml IL-7, 30 ng/ml IL-15, 25 ng/ml IL-21, or 40 ng/ml GM-CSF for 30 min at 37°C. Red blood cells were lysed (155 mmol/L NH4Cl, 10 mmol/L Tris-HCl, pH 7.5). Leukocytes were analyzed by flow cytometry.
Mouse islet cells were stained with anti-CD45 and biotinylated anti-H2Kd (BD Pharmingen) followed by streptavidin-allophycocyanin (BioLegend). β‐cells were identified by autofluorescence ([23]). Dead cells were excluded using propidium iodide. […] Data were collected on the FACS Fortessa cell analyzer (BD Bioscience, San Jose, CA, USA) and were analyzed using FlowJo Software version 10 (TreeStar, Inc, Ashland, OR, USA).

[6] = test system: JAK2-dependent cytokines IL-3 and GM-CSF; conditions: cited from earlier work
JAK1 over JAK2 = test system: JAK1 over JAK2; parameters: method as in PMID 30806706, PMID 27390150; conditions: cited from earlier work
JAK1 over JAK3 = test system: JAK1 over JAK3; parameters: method as in PMID 30806706, PMID 27390150; conditions: cited from earlier work

For `Cc1cc(Nc2nc(N[C@@H](C)c3ncc(F)cn3)ncc2Cl)n[nH]1` [AZD1480], the “IFN-γ mediated MHC class I upregulation on β cells” value [1] is listed as “blocked”, the established autoimmune insulitis [2] is listed as “reversed” and the “immune cell infiltration into pancreatic islets” value [2] is listed as “reduced”.

In the case of `CCS(=O)(=O)N1CC(CC#N)(n2cc(-c3ncnc4[nH]ccc34)cn2)C1` [baricitinib], the albuminuria [3] is given as “reduction”, the “neutropenia in clinical trials” value [4] is given as “neutropenia has been found” and the “blocking IL-21 signaling through pSTAT3, dose dependence” value [5] is given as “similar”.

For `O=C(Nc1nc2cccc(-c3ccc(CN4CCS(=O)(=O)CC4)cc3)n2n1)C1CC1` [filgotinib], the anemia ([4]; rheumatoid arthritis patients) is listed as “did not result in anemia”.

In the case of `C[C@@H]1CCN(C(=O)CC#N)C[C@@H]1N(C)c1ncnc2[nH]ccc12` [tofacitinib], the “blocking IL-21 signaling through pSTAT3, dose dependence” value [5] is reported as “similar”.

In the case of `CC[C@@H]1CN(C(=O)NCC(F)(F)F)C[C@@H]1c1cnc2cnc3[nH]ccc3n12` [upadacitinib], the “effect on JAK2-dependent cytokines IL-3 and GM-CSF” value [6] is given as “inhibits”, the “selectivity for JAK1 over JAK2” value (JAK1 over JAK2) is given as 74 fold and the “selectivity for JAK1 over JAK3” value (JAK1 over JAK3) is given as 58 fold.
